Results published in patent publication US4347319A, “Microbiological epoxidation process” (priority 1980, dated 1982).

Columns and labels:
[1] = system: Methylomonas methanica (CRL 21 PM7) NRRL B-11,206; assay: Oxidation by washed cell suspensions of methane-grown cells; format: cell-based
How it was run: (§1)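 Products were quantified by gas chromatography (flame ionization) in headspace/liquid samples taken periodically from sealed vials. Each vial held 2 mg washed methane-grown cells in 0.15 M phosphate pH 7.0 under a 1:1 substrate/oxygen gas phase, shaken at 30 °C.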

[2] = system: cell fractions of Methylosinus trichosporium (OB3b, NRRL B-11,196); format: biochemical; details: S(80); propylene to propylene oxide, methane to methanol; 30° C.
Method: Cells were washed twice with 25 mM potassium phosphate buffer, pH 7.0 containing 5 mM MgCl2. Cells were suspended in the same buffer. The cell suspensions at 4° C. were disintegrated by a single passage through a French Pressure cell (15,000 lb./in.^2) and centrifuged at 5000×g. for 15 min. to remove unbroken bacteria. The supernatant solution (crude extract) was then centrifuged at 40,000×g. for 30 min., yielding particulate P(40) and soluble S(40) fractions. The S(40) fraction was subsequently centrifuged at 80,000×g. for 60 min., yielding particulate P(80) and soluble S(80) fractions. The particulate fractions [P(40) and P(80)] were suspended in 25 mM potassium phosphate buffer, pH 7.0, containing 5 mM MgCl2 and homogenized at 4° C.
The oxidation of methane and propylene by particulate [(P)40 and (P)80] fractions and soluble [S(80)] fraction was measured at 30° C. by estimating the production of methanol and propylene oxide, respectively. The reaction mixtures contained in […]: 150 mM potassium phosphate buffer, pH 7.0 containing 5 mM MgCl2 b, 0.6 ml; 10μ moles NADH, and cellular fraction.
Reaction mixtures were contained in 10 ml vials at 4° C. Vials were sealed with rubber caps. The gaseous phase in the vials was removed using vacuum and then was replaced with a gas mixture of methane or propylene and oxygen at a 1:1, v/v ratio. Oxidation of other gaseous n-alkanes and n-alkanes was examined as described above. For liquid substrates, 10 μl of substrate was used directly.
The products of epoxidation of n-alkenes and hydroxylation of n-alkanes were assayed by flame ionization gas chromatography using a stainless steel column (12'×1/8") packed with 10% Carbowax 20 M on 80/100 Chromosorb W and Porapak Q column. The column temperature was maintained isothermally at 120° C. The carrier gas flow rate was 30 ml/min. of helium. The various products were identified by retention time comparisons and co-chromatography with authentic standards.
Specific activities were expressed as μ moles of products formed per hour per mg. protein. Concentrations of protein in various fractions were determined by the method of Lowry et al., J. Biol. Chem., 193: 265-275 (1951).

[3] = system: Methylomonas rosaceus (CRL M7P) NRRL B-11,213; assay: Oxidation by washed cell suspensions of methane-grown cells; format: cell-based; details: 30° C., methane to methanol, alkene to 1,2-epoxide
How it was run: as §1

[4] = system: Methylomonas rubrum (CRL M6P) NRRL B-11,210; assay: as above; format: cell-based; details: methane-grown washed cells, 30° C.; methane to methanol, alkene to 1,2-epoxide
How it was run: as §1

Row | Compound | Conversion Rate to Ketone ([1]; methane-grown cells, butane to 2-butanone) [μmoles/hr/mg Protein] | Oxidizing Activity (rate of oxidation) in cell fraction [2] | Oxidative Conversion Rates [3] [μmole/hr/mg protein] | Oxidative Conversion Rates [4] [μmole/hr/mg protein] | Oxidative Conversion Rates ([1]; methane-grown washed cells, 30° C., methane to methanol, alkene to 1,2-epoxide) [μmole/hr/mg protein]
1 | CCCC [Butane] | 1.5 | – | – | – | –
2 | C [Methane] | – | 0 μ moles of products formed per | 1.4 | 0.5 | –
3 | C=CC [Propylene] | – | 0 μ moles of products formed per | 2.0 | 1.0 | 2.4
